{"source": "patent US9096607B2", "about": "“Tumor necrosis factor inhibitors” (THE TRUSTEES OF THE UNIVERSITY OF PENNSYLVANIA, priority 2005, dated 2015)", "key": {"[1]": {"tested_on": "EGF-signaling in NE91 cells", "test": "Effect on EGF-signaling in NE91 cells (western blot)", "format": "cell-based", "settings": "2 hr treatment, EGF 100 ng/mL", "procedure": "To verify the effects of I-9 were specific to TNF-α signaling, the effect of I-9 on EGF-signaling was tested in NE91 cells (American Type Culture Collection, Manassas, Va.). NE91 cells were cultured in RPMI medium containing 10% FBS in 6-well plate at the density of 1×10^6/well for 12 hr, followed by 2 hr treatment with or without I-9. Cells were then stimulated with EGF at 100 ng/mL for the indicated time. Cells were then lysed and analyzed by western blotting in the same manner as described above for analysis of TNF-α signaling in L929 cells."}, "TNF-R1": {"biological_target": "T1, TNF-R1 (Homo sapiens, UniProt P19438)", "T1 construct": "The ectodomain of wild type TNF receptor 1 was obtained by PCR from pKP13; made in house", "T1 sequence (P19438 30-211 limits assumed)": "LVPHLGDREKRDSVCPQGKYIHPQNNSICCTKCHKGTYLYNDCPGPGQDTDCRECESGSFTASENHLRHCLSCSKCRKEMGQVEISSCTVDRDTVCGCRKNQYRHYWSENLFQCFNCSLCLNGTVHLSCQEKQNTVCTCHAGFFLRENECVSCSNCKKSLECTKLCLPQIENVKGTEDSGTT", "test": "Acrylamide quenching of intrinsic tryptophan fluorescence of TNF-R1 (Stern-Volmer)", "format": "binding", "settings": "test compound 20 μM, 5 μM TNF-R1; TNF-R1 alone 14.4±0.2 M^−1", "procedure": "The residue W107 in the WP9 loop fluoresces around 340 nm. In this set of experiments, the resultant concentration of quencher ranged up to 0.25 M, quenching 77.4% of the total intrinsic fluorescence of TNF-R1. […] Thus binding of 1-9 to the receptor changed the disposition of tryptophan-107.\nQuenching experiments with acrylamide were performed in stirred cells, at 25° C., titrating from a stock of 1 M acrylamide by adding 2.5 μl of acrylamide each time. Recombinant TNF-R1 were at the concentration of 5 μM in 1% DMSO. Tryptophan emission, monitored at 340 nm, was observed using 295 nm excitation. Intensity data following quencher additions were averaged over a 10-sec collection and were corrected for background emission (paired control lacking of protein). Intensities, F, at given quencher concentration, [Q], were analyzed using the Stern-Volmer equation, F0/F=1+KS.V·[Q] • Where F0 is the emission intensity of the protein in the absence of quencher, and KS.V is the Stern-Volmer constant for quenching, given by the slope when data are plotted as Fo/F versus [Q].\nFor synthesized small molecules, a test compound at 20 μM was pre-incubated with 5 μM TNF-R1 in 1% DMSO for 30 min, and titrated with 1 M acrylamide the same way as TNF-R1 alone. The F0/F was analyzed using the Stern-Volmer equation, and two slopes from TNF receptor and from TNF receptor with the test compound were compared."}, "[2]": {"tested_on": "TNF-α signaling in THP1 cells", "test": "Inhibition of TNF-α signaling in THP1 cells (western blot)", "format": "cell-based, Human", "settings": "2 hr pretreatment", "procedure": "THP1 cells (Human acute monocytic leukemia cell line, American Type Culture Collection, Manassas, Va.) were cultured in RPMI with the supplement of 50 mM HEPES, 1 mM Na Pyruvate, 50 μM of 2-ME, 2.5 mg/mL of glucose, […] of gentamicin and 10% of FBS. Cells were cultured in 12-well plate at a density of 6×10^5/well with supplement of 100 ng/mL PMA. Cells were plated 72 hrs to differentiate. Cells were then pretreated with or without small molecule for 2 hr, followed by treatment with TNF-α at 20 ng/mL at the indicated periods. Cells were then lysed and analyzed by western blotting in the same manner as described above for L929 cells."}}, "data": [{"smiles": "CC(=O)Oc1ccc(C(C)(c2ccc(OC(C)=O)cc2)c2ccc(OC(C)=O)cc2)cc1", "note": "[Compound I-9, 1,1,1-Tris-(4-acetoxyphenyl)ethane]", "values": [{"measurement": "changes in EGF-induced signaling", "setting": "[1]", "result": "failed to induce changes"}, {"measurement": "Stern-Volmer constant for TNF-R1 quenching by acrylamide in the presence of the test compound", "setting": "TNF-R1", "result": "11.6 ± 0.2", "unit": "M⁻¹"}, {"measurement": "TNF-α mediated I-kBα phosphorylation", "setting": "[2]", "result": "inhibited"}, {"measurement": "TNF-α mediated p38 phosphorylation", "setting": "[2]", "result": "inhibited"}]}]}
